According to US6521222B1, “Inorganic/organic complexes for reducing skin irritation” (Societe L'Oreal S.A., priority 1999, dated 2003):

Legend:
[1] = Cytotoxicity (MTT test) on Episkin reconstructed skin after applying compositions; type: cell-based, human; details: human; composition A + 0.5% (w/V) 5-n-octanoylsalicylic acid, no compound of formula (I); 150 mg/cm^2, 18 hours, 37° C./5% CO2; read-out: % of cell viability
Protocol: (§1) The Episkin system is a model of human epidermis reconstituted in vitro, which was manufactured by the company Episkin. The epidermis contained only one cell type: keratinocytes. The keratinocytes were seeded onto a dermis equivalent which was composed of various types of collagen.
(§2) After a period of proliferation of the keratinocytes immersed in the culture medium, the system was raised up to the air/liquid interface.
(§3) The assignee hereof has studied the cytotoxicity of the keratinocytes (3-(4,5-dimethylthiazol-2-yl)-2,5-diphenyltetrazolium bromide test) after applying to this reconstructed skin model various compositions in a proportion of 150 mg/cm^2, and maintaining same in an incubator at 37° C./5% CO2 for a period of 18 hours. Each composition was tested on two epidermides of 1.13 cm^2.
(§4) The basic composition A was:
(§5) The other compositions tested corresponded to this composition A to which 5-n-octanoylsalicylic acid, alone or in admixture with a compound of formula (I) according to the invention, was added.
(§6) The measurement of cell viability was carried out immediately after rinsing of the compositions with phosphate buffered saline (PBS).

[2] = test system: keratinocytes of Episkin human epidermis reconstituted in vitro; assay: as above; type: cell-based; details: 0.3% (w/V) 5-n-octanoylsalicylic acid added to composition A
Protocol: as §1, §2, §3, §4, §5, §6

CCCCCCCC(=O)c1ccc(O)c(C(=O)O)c1 [5-n-octanoylsalicylic acid]
viability at 18 h, 0.5 % (w/V) [1]: 7.8% | cytotoxicity of the composition [2]: cytotoxic
